Reference: patent US20220050096A1, “ANALYTE-SENSITIVE PROBES AND CONTACT LENS FOR DIAGNOSIS OF OCULAR PATHOLOGIES” (University Of Maryland, Baltimore, priority 2020, published 2022)

Assay: Fluorescence anisotropy decays of SG in buffer and sodium probes in Biofinity lenses
Type: physicochemical
Protocol: Three decay time components were required for the intensity decays. Fluorescence anisotropy decays were determined by individual measurements of the polarized intensity decays with corrections for the G-factor. Resolution of multi-exponential decays is not necessary. The average lifetime can be used as a single measurement.
Similar anisotropy decays have been observed for numerous fluorophores bound to large proteins or membranes.

anisotropy decay: decayed quickly to zero
SMILES: COc1cc(N2CCOCCOCCN(c3cc(OC)c(NC(=O)c4ccc(-c5c6cc(Cl)c(=O)cc-6oc6cc([O-])c(Cl)cc56)c(C(=O)[O-])c4)cc3OC)CCOCC2)c(OC)cc1NC(=O)c1ccc(-c2c3cc(Cl)c(=O)cc-3oc3cc([O-])c(Cl)cc23)c(C(=O)[O-])c1.C[N+](C)(C)C.C[N+](C)(C)C.C[N+](C)(C)C.C[N+](C)(C)C [SG]
